Paper PMC7714403 (JCI Insight, 2020)
Where two headings read alike, the source gives them in different places.

Experiments:
GCK = molecular target: T1, GCK (Homo sapiens, UniProt Q12851); assay: KiNativ in situ kinase profiling, OCI-AML3 cells; assay type: cell-based
T1 sequence (Q12851 1-820): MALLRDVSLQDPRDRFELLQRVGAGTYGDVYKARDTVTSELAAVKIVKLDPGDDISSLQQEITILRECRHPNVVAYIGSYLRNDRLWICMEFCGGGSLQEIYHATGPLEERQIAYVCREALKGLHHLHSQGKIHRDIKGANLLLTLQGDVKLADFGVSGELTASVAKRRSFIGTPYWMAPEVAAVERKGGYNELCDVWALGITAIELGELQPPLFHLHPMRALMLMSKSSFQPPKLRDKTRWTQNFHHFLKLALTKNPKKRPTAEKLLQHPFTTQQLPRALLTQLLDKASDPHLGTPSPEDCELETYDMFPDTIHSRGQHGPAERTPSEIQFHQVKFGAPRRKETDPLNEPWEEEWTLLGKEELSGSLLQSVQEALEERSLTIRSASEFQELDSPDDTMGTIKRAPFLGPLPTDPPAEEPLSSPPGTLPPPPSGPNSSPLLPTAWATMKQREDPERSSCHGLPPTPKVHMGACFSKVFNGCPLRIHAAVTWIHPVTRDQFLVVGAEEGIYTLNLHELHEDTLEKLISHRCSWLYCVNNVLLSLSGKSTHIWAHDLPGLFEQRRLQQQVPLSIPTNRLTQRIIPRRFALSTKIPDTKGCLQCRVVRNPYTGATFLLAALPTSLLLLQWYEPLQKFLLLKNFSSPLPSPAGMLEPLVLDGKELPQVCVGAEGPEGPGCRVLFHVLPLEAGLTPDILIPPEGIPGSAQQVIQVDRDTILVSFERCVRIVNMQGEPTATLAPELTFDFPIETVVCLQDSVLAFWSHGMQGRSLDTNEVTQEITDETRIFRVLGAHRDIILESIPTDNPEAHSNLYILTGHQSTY
Protocol: Samples were analyzed by KiNativ in situ kinase profiling by ActivX Biosciences.

PKCi = PKCi (Homo sapiens, UniProt P41743); assay: KiNativ, OCI cells live cell; assay type: cell-based; settings: 2 h
Sequence of PKCi (P41743 whole entry): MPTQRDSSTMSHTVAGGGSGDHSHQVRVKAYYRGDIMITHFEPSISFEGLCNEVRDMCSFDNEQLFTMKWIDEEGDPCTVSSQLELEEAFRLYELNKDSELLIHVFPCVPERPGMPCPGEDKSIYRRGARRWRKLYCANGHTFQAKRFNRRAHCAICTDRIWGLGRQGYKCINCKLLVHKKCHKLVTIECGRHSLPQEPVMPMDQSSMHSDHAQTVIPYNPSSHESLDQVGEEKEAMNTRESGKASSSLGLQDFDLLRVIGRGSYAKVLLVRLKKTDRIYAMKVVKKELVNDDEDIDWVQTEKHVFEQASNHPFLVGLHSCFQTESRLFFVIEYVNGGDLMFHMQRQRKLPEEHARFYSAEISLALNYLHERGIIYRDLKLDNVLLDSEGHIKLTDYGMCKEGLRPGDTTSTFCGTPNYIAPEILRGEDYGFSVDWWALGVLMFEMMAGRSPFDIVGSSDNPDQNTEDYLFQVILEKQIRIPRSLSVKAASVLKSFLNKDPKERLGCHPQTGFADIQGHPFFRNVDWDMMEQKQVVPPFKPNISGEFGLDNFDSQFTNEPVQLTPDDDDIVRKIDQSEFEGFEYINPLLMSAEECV

IKKb = molecular target: T2, IKKb (Homo sapiens, UniProt O14920); assay: KiNativ, OCI cells live cell; assay type: cell-based; settings: 2 h
T2 sequence (O14920 1-756): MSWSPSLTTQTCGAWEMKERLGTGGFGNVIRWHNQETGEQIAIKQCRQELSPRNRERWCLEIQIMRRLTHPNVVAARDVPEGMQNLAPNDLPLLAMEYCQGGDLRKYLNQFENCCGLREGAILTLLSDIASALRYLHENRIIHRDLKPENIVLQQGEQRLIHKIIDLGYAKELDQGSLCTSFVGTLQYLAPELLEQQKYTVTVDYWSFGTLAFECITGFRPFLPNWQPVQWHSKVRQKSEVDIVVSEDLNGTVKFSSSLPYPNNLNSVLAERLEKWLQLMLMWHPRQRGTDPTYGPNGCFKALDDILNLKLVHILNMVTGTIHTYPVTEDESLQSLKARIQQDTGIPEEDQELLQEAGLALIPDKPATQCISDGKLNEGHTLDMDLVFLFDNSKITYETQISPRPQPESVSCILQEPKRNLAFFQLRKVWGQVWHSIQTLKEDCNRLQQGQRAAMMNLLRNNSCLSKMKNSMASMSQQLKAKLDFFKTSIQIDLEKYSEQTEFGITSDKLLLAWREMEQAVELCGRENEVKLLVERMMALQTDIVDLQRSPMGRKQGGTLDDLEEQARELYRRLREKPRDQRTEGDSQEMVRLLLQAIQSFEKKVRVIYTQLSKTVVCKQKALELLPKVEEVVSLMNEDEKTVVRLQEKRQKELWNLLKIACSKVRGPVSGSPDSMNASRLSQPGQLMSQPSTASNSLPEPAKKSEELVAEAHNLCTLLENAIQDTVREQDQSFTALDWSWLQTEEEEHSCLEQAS

MST3 = MST3 (Homo sapiens, UniProt Q9Y6E0); assay: KiNativ, OCI cells live cell; assay type: cell-based; settings: labeling site Lys2, peptide DIKAANVLLSEHGEVK
Sequence of MST3 (Q9Y6E0 whole entry): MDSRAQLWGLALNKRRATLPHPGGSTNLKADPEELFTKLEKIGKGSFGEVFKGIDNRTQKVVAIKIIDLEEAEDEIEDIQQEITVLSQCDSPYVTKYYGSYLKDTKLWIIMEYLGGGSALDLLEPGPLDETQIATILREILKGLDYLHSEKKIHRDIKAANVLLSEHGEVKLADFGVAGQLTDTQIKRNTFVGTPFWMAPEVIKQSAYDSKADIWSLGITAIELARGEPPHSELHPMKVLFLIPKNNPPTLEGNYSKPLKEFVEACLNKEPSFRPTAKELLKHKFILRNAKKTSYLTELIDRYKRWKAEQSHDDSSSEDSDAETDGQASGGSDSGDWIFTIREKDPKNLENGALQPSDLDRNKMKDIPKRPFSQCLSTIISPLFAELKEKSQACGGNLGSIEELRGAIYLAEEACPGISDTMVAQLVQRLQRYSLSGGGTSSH

NEK1 = NEK1 (Homo sapiens, UniProt Q96PY6); assay: KiNativ, OCI cells live cell; assay type: cell-based; settings: 2 h, labeling site Lys2, peptide […]
Sequence of NEK1 (Q96PY6 whole entry): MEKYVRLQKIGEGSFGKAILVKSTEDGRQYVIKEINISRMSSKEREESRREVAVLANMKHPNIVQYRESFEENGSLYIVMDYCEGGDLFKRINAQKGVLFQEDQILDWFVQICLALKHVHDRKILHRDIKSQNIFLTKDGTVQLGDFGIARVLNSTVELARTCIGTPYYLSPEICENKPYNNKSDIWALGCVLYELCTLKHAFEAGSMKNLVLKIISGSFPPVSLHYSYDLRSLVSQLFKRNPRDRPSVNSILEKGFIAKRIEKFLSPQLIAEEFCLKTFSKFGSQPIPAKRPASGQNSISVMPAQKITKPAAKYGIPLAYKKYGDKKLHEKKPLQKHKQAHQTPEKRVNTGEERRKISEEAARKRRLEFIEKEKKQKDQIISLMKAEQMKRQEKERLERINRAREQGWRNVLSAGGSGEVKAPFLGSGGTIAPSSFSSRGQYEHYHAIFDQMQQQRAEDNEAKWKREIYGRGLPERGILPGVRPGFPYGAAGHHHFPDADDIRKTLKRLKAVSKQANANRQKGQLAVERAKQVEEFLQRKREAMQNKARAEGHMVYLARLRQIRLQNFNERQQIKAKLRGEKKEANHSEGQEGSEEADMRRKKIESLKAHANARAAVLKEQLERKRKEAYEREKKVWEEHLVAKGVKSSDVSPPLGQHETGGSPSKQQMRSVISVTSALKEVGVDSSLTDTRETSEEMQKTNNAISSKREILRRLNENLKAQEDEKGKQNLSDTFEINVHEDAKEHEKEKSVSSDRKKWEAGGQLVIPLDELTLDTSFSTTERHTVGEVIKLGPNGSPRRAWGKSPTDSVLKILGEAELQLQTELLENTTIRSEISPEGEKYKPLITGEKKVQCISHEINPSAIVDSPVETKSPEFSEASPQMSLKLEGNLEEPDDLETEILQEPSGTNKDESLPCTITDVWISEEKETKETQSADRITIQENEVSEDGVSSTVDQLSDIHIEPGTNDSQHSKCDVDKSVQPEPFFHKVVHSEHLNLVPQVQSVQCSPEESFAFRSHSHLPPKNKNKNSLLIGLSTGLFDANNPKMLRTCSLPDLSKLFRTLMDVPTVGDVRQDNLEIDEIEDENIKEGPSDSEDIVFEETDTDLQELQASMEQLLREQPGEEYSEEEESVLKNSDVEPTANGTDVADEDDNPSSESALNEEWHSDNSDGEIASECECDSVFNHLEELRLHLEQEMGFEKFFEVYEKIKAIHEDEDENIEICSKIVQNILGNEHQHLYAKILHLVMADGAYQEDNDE

FYN, SRC, YES = assay: KiNativ, OCI cells live cell; assay type: cell-based, human; settings: labeling site Activation Loop, peptide QGAKFPIKWTAPEAALYGR
[1] = system: phospho-FLT3 and phospho-STAT5 in Ba/F3-FLT3-ITD/F691L cells; assay: Western blot, signaling inhibition; assay type: cell-based, mouse; settings: increasing concentrations, 1 hour
Protocol: MOM13 cells were serum starved (RPMI plus 0.5% FBS) for 18–24 hours prior to start of drug treatment. For other cells, they were not serum starved. Drug treatments were carried out for 1 or 4 hours, at which time cells were lysed with Cell Lysis buffer (CST) or RIPA buffer (CST) supplemented with protease and phosphatase inhibitors. […] Western blots were developed with either Signal Fire ECL reagent (CST) or SuperSignal West Femto Maximum Sensitivity Substrate (Invitrogen) using Film or Odyssey FC Imaging System (LI-COR Biosciences). Western blots were repeated in 2–3 biological replicate experiments.

For `CN1CCN(Cc2ccc(Nc3ncc(Cl)c(Nc4ccccc4S(=O)(=O)N(C)C)n3)cc2)CC1` [TP-0903], the inhibition at 0.1 µM (GCK; OCI-AML-3, 2 h, OCI cells, live cell, labeling site Lys1, peptide DTVTSELAAVKIVK, read-out: Inhibition) was 45.6%, the inhibition at 0.1 µM (GCK; OCI-AML-3, 2 h, OCI cells, live cell, labeling site Lys2, peptide DIKGANLLLTLQGDVK, read-out: Inhibition) was 42.3% and the inhibition at 0.1 µM (GCK; OCI-AML-3, OCI-AML3 cells, 100 nM, read-out: Inhibition of GCK) was 46%. For the same compound, the inhibition at 0.1 µM (PKCi; labeling site Lys1, peptide IYAMKVVK) was 9.2%, the inhibition at 0.1 µM (PKCi; labeling site Lys2, peptide DLKLDNVLLDSEGHIK) was 8.9% and the inhibition at 0.1 µM (IKKb; labeling site Lys1, peptide WHNQETGEQIAIKQCR) was -16%. The inhibition at 0.1 µM (IKKb; labeling site Lys2, peptide DLKPENIVLQQGEQR) was 14.6%, the Inhibition (MST3) was 35.2% and the inhibition at 0.1 µM (NEK1) was -4.4%. For the same compound, the Inhibition (FYN, SRC, YES) was 16.0% and the “phospho-FLT3 and phospho-STAT5 by immunoblot” value [1] was “inhibition”.
